Experimental data taken from US7517902B2, “Substituted indazoles, compositions containing the same, and the preparation and use thereof” (Aventis Pharma S.A., priority 2004, dated 2009).
pIC50: −log10 of the molar value. Where a name gives a salt, the structure may show the parent alone.

Legend:
[1] = target: T1, CDK4/cyclin D1 kinase complex (Homo sapiens, UniProt P11802); assay: CDK4/cyclinD1 Flashplate assay in 96-well format; assay type: biochemical; conditions: read-out: IC 50 CDK4
T1 construct: HA (Hemagglutinin tag) (C); made in house; host or cells: Sf9 insect cells (baculovirus co-infection)
T1 sequence (P11802 whole entry): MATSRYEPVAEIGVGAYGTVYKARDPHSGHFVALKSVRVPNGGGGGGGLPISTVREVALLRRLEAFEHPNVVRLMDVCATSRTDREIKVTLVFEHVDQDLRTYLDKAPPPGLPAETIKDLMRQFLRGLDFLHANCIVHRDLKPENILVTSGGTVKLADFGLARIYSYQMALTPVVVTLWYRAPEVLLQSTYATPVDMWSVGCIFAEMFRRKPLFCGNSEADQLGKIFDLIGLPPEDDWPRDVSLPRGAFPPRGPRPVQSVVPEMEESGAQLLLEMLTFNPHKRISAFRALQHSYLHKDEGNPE
T1 sequence (P24385 whole entry partner): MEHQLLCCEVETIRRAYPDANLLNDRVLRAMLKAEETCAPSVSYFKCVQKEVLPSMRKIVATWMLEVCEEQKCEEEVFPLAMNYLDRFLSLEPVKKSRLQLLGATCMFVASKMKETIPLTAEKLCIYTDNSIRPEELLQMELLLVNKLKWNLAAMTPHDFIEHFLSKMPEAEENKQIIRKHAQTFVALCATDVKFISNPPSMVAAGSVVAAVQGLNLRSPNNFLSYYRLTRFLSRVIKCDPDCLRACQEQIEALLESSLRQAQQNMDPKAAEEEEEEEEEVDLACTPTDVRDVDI
Description: Purification of the CDK4-HA/cyclin D1-(His)6 complex by IMAC (Immobilized Metal Affinity Chromatography):
Two recombinant baculoviruses carrying the human sequences coding respectively for CDK4-HA (C-terminal fusion with the Hemagglutinin tag) and for cyclin D1-(His)6 are used to co-infect Sf9 insect cells. Sixty hours after the beginning of co-infection, the cells are harvested by centrifugation and then frozen at −20° C. until their use. After thawing in buffer A (HEPES 200 mM pH 7.0, NaCl 50 mM, MgCl2 2 mM, imidazole 25 mM, TCEP 1 mM, glycerol 10% (w/v), NaF 1 mM, Na3VO4 1 mM), stirring at 4° C. for 1 h, and centrifugation, the complex present in the lysis supernatant is purified by affinity chromatography on nickel (IMAC) and stored at −80° C.
CDK4/cyclinD1 Flashplate Assay in 96-Well Format.
An assay in 96-well “Flashplate” (scintillation plate) plates coated with streptavidin is used to evaluate the inhibition of the CDK4/cyclin D1 kinase complex by the products of the invention. To perform this test, the biotinylated peptide substrate, a fragment of the pRb protein, (biotinyl-[…]-amide), is dissolved at a concentration of 2 mM in kinase buffer (HEPES/NaOH 50 mM, NaCl 1 mM, MgCl2 5 mM, pH=7.5) to form a stock solution, which is stored at −20° C. in the form of 110 μl aliquots. On the day of the experiment, an aliquot of this solution is thawed and diluted in kinase buffer containing 1 mM of dithiothreitol, added at the time of use, so as to give a final peptide concentration of 2.571 μM. seventy μl of this solution are deposited in each well of the Flashplate plate, to give a final substrate concentration of 1.8 μM during the enzymatic reaction, which is performed in a final volume of 100 μl (cf. below). Intermediate dilutions of inhibitors (products of the invention) at various concentrations are prepared in DMSO from 10 mM stock solutions in separate tubes. In this way dilutions at 1000 μM, 333.3 μM, 111.1 μM, 37.03 μM, 12.35 μM, 4.11 μM and 1.37 μM are produced. One μl of each of these solutions (or 1 μl of DMSO for the controls) is subsequently transferred into the wells of the assay plate. To each well there is subsequently added 19 μl of a solution of a mixture of adenosine triphosphate (ATP) and ATPγ^33P in the kinase buffer at a concentration of 5.26 μM of total ATP and 78.9 μCi/ml of ^33P. The enzymatic reaction is triggered by adding 10 μl per well of a solution of CDK4/cyclin D1 complex at 250 nM in the kinase buffer, containing 1 mM of dithiothreitol (or 10 μl of kinase buffer containing 1 mM of dithiothreitol for the reaction blanks). At the end of the various additions, the final volume in each well is 100 μl, the final substrate concentration is 1.8 μM, the final inhibitor concentrations are 10 μM, 3.33 μM, 1.11 μM, 0.37 μM, 0.123 μM, 0.041 μM and 0.014 μM (depending on the concentration of the intermediate dilution), the final ATP concentration is 1 μM, the final amount of ^33P is 1.5 μCi/well, and the final concentration of CDK4/cyclin D1 complex is 25 nM.
After all of the reagents have been added, the assay plate is incubated at 30° C. with orbital stirring at 650 rpm. Following incubation, the plate is washed three times with 300 μl per well of PBS buffer (phosphate buffered saline, pH=7.4 with neither calcium nor magnesium, reference 10010-015, Gibco BRL). The incorporation of ^33P into the substrate peptide is measured by scintillation counting using a Packard Topcount.NXT instrument. The inhibitory activity of the products of the invention is evaluated by determining the concentration of inhibitor resulting in a 50% reduction in the enzymatic activity (IC50).

[2] = target: T2, human KDR enzyme (Homo sapiens, UniProt P35968); assay: KDR substrate phosphorylation assay (scintillation, 96-well plate); assay type: biochemical
T2 construct: The cytoplasmic domain of the human KDR enzyme was cloned in the form of a GST fusion; GST; made in house; host or cells: SF21 insect cells (baculovirus, pFastBac)
T2 sequence (P35968 786-1356 limits assumed): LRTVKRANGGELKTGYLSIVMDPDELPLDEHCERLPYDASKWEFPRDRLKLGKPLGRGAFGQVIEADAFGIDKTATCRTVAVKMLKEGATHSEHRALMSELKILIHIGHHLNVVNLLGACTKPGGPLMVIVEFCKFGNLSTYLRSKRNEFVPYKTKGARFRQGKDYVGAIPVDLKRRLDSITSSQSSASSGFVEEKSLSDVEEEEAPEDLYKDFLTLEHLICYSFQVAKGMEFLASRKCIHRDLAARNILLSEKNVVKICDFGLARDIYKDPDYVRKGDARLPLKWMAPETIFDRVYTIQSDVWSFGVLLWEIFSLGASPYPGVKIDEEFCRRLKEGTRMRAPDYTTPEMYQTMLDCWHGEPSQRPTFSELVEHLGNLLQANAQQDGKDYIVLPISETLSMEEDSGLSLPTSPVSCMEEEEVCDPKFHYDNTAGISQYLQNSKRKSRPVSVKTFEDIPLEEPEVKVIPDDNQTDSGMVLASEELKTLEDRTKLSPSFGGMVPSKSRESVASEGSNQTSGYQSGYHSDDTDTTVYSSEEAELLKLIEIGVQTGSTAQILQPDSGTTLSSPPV
In short: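 GST-fused cytoplasmic domain of human KDR (Sf21-expressed, ~60% pure; 100 ng) mixed with compound at 4 °C in MOPS buffer pH 7.2 with Mg2+/Mn2+, DTT, EGTA, vanadate, NaF. Started with 2 μg GST-PLCγ SH2-SH3, γ33P-ATP and cold ATP (2 μM in starting solution); 1 h, 37 °C, EDTA stop. Result: % inhibition vs no-compound control.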

| SMILES | pIC50 [1] | pIC50 [2] |
| --- | --- | --- |
| Nc1n[nH]c2cc(-c3ccc(NS(=O)(=O)c4cccc(Cl)c4Cl)cc3)ccc12 [Example 2, 1-[4-(3-Amino-1H-indazol-6-yl)phenyl]-2,3-dichlorobenzenesulfonamide hydrochloride] | 6.88 | – |
| O=C(Nc1n[nH]c2cc(-c3ccc(NS(=O)(=O)c4cccc(Cl)c4Cl)cc3)ccc12)c1ccsc1 [Example 3, 3-Thiophenecarboxylic acid {6-[4-(2,3dichlorobenzenesulfonylamino)phenyl]-1H-indazol-3-yl}amide] | 6.84 | 6.06 |
| O=C(Nc1n[nH]c2c(F)c(-c3ccc(NS(=O)(=O)c4cccc(Cl)c4Cl)cc3)ccc12)c1ccsc1 [Example 5, 3-Thiophenecarboxylic acid {6-[4-(2,3-dichlorobenzenesulfonylamino)-7-fluorophenyl]-1H-indazol-3-yl}amide] | 7.26 | 5.73 |
| Nc1n[nH]c2c(F)c(-c3ccc(NS(=O)(=O)c4cccc(Cl)c4Cl)cc3)ccc12 [Example 8, 1-[4-(3-Amino-1H-indazol-6-yl)-7-fluorophenyl]-2,3-dichlorobenzenesulfonamide hydrochloride] | 6.93 | 5.18 |
